Molecular target: triosephosphate isomerase from G. lamblia (GlTIM; dGlTIM) (Giardia duodenalis, UniProt P36186, C202A)
Assay: GDH-coupled TIM activity assay after […] h incubation at […] °C
Format: biochemical

SMILES: CCN(CC)C(=S)SSC(=S)N(CC)CC [disulfiram, 1,1′,1″,1‴-[disulfanediylbis(carbonothioylnitrilo)]tetraethane]
- IC50: 6.6 µM
